The numbers were not newly measured in patent US20110027361A1, “EXTENDED RELEASE DOSAGE FORM OF PALIPERIDONE” (TORRENT PHARMACEUTICALS LTD., priority 2008, published 2011), which cites them from elsewhere.

For series [1] the following is noted: in vivo.

In the case of `Cc1nc2n(c(=O)c1CCN1CCC(c3noc4cc(F)ccc34)CC1)CCCC2O` (stereo not shown) [Paliperidone], under “0.1N HCl”, the “solubility in 0.1N HCl” value was “sparingly soluble”. The “solubility in methylene chloride” value (methylene chloride) was “sparingly soluble”. In addition, for the setting “water”, the solubility in water result is on record as “practically insoluble”. In addition, the terminal elimination half-life result in series [1] is given as “approximately 23 hours”.
